Reference: PubChem BioAssay (NCI)
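Interpolation was linear, between the two tested concentrations surrounding the appropriate level; five concentrations were tested over 48 hours in 96-well plates. At the TGI there is no net growth.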

Experiments:
Assay in all cases: growth of human tumour cells (NCI), 48 h
DU-145 prostate = system: DU-145 prostate
SK-MEL-28 melanoma = system: SK-MEL-28 melanoma
OVCAR-3 ovarian = system: OVCAR-3 ovarian
HOP-92 NSCLC = system: HOP-92 NSCLC
SNB-19 CNS = system: SNB-19 CNS
SF-268 CNS = system: SF-268 CNS
UO-31 renal = system: UO-31 renal
CAKI-1 renal = system: CAKI-1 renal
T-47D breast = system: T-47D breast
RPMI-8226 leukemia = system: RPMI-8226 leukemia
SF-295 CNS = system: SF-295 CNS

C/C(=C\CNc1ncnc2c1ncn2CCC(=O)OC(C)(C)C)CO
TGI (DU-145 prostate): > 100 µM
TGI (SK-MEL-28 melanoma): > 100 µM
TGI (OVCAR-3 ovarian): > 100 µM
TGI (HOP-92 NSCLC): > 100 µM
TGI (SNB-19 CNS): > 100 µM
TGI (SF-268 CNS): > 100 µM
TGI (UO-31 renal): > 100 µM
TGI (CAKI-1 renal): > 100 µM
TGI (T-47D breast): > 100 µM
TGI (RPMI-8226 leukemia): > 100 µM
TGI (SF-295 CNS): > 100 µM

N#CCC1C2CC3C(C2=O)C13 (stereo unspecified)
TGI (DU-145 prostate): > 100 µM
TGI (SK-MEL-28 melanoma): > 100 µM
TGI (OVCAR-3 ovarian): > 100 µM
TGI (HOP-92 NSCLC): > 100 µM
TGI (SNB-19 CNS): > 100 µM
TGI (SF-268 CNS): > 100 µM
TGI (UO-31 renal): > 100 µM
TGI (CAKI-1 renal): > 100 µM
TGI (T-47D breast): > 100 µM
TGI (RPMI-8226 leukemia): > 100 µM
TGI (SF-295 CNS): > 100 µM

CC1(C)SCc2nc3ccccc3n21
TGI (DU-145 prostate): > 100 µM
TGI (SK-MEL-28 melanoma): > 100 µM
TGI (OVCAR-3 ovarian): > 100 µM
TGI (HOP-92 NSCLC): > 100 µM
TGI (SNB-19 CNS): > 100 µM
TGI (SF-268 CNS): > 100 µM
TGI (UO-31 renal): > 100 µM
TGI (CAKI-1 renal): > 100 µM
TGI (T-47D breast): > 100 µM
TGI (RPMI-8226 leukemia): > 100 µM
TGI (SF-295 CNS): > 100 µM

Cc1cnc2c(c1)C(=O)N(c1ccc([N+](=O)[O-])cc1)S2(=O)=O
TGI (DU-145 prostate): > 100 µM
TGI (SK-MEL-28 melanoma): > 100 µM
TGI (OVCAR-3 ovarian): > 100 µM
TGI (HOP-92 NSCLC): > 100 µM
TGI (SNB-19 CNS): > 100 µM
TGI (SF-268 CNS): > 100 µM
TGI (UO-31 renal): > 100 µM
TGI (CAKI-1 renal): > 100 µM
TGI (T-47D breast): > 100 µM
TGI (RPMI-8226 leukemia): > 100 µM
TGI (SF-295 CNS): > 100 µM

COc1cc2cc3c4cc(OC)c(OC)cc4cc[n+]3c(C)c2cc1OC
TGI (DU-145 prostate): > 100 µM
TGI (SK-MEL-28 melanoma): > 100 µM
TGI (OVCAR-3 ovarian): > 100 µM
TGI (HOP-92 NSCLC): > 100 µM
TGI (SNB-19 CNS): > 100 µM
TGI (SF-268 CNS): > 100 µM
TGI (UO-31 renal): > 100 µM
TGI (CAKI-1 renal): > 100 µM
TGI (T-47D breast): > 100 µM
TGI (RPMI-8226 leukemia): > 100 µM
TGI (SF-295 CNS): > 100 µM

NC(Cc1ccccc1)c1nn[nH]n1 (stereo unspecified)
TGI (DU-145 prostate): > 100 µM
TGI (SK-MEL-28 melanoma): > 100 µM
TGI (OVCAR-3 ovarian): > 100 µM
TGI (HOP-92 NSCLC): > 100 µM
TGI (SNB-19 CNS): > 100 µM
TGI (SF-268 CNS): > 100 µM
TGI (UO-31 renal): > 100 µM
TGI (CAKI-1 renal): > 100 µM
TGI (T-47D breast): > 100 µM
TGI (RPMI-8226 leukemia): > 100 µM
TGI (SF-295 CNS): > 100 µM

O=C(O)C1=CN(c2ccncc2)C(c2ccco2)=CC1c1ccccc1[N+](=O)[O-] (stereo unspecified)
TGI (DU-145 prostate): 26.7 µM
TGI (SK-MEL-28 melanoma): 40.9 µM
TGI (OVCAR-3 ovarian): 21.2 µM
TGI (HOP-92 NSCLC): 27.7 µM
TGI (SNB-19 CNS): 27.8 µM
TGI (SF-268 CNS): 25.9 µM
TGI (UO-31 renal): 23.3 µM
TGI (CAKI-1 renal): 34.1 µM
TGI (T-47D breast): 25 µM
TGI (RPMI-8226 leukemia): > 24.5 µM
TGI (SF-295 CNS): 26.2 µM

C=C(CCC/C(C)=C/C=C/[C@H](C)CCCc1ccoc1)C[C@@H]1OC(=O)[C@H](C)[C@@H]1O
TGI (DU-145 prostate): 19 µM
TGI (SK-MEL-28 melanoma): 15.6 µM
TGI (OVCAR-3 ovarian): 17.6 µM
TGI (HOP-92 NSCLC): 18.5 µM
TGI (SNB-19 CNS): 17.1 µM
TGI (SF-268 CNS): 18.1 µM
TGI (UO-31 renal): 15.6 µM
TGI (CAKI-1 renal): 19.2 µM
TGI (T-47D breast): 17.6 µM
TGI (RPMI-8226 leukemia): 30.2 µM
TGI (SF-295 CNS): 22.9 µM

Cc1c(-c2nc(N)c(C#N)c(N)c2C#N)c(=O)oc2ccccc12
TGI (DU-145 prostate): > 100 µM
TGI (SK-MEL-28 melanoma): > 100 µM
TGI (OVCAR-3 ovarian): > 100 µM
TGI (HOP-92 NSCLC): > 100 µM
TGI (SNB-19 CNS): > 100 µM
TGI (SF-268 CNS): > 100 µM
TGI (UO-31 renal): > 100 µM
TGI (CAKI-1 renal): > 100 µM
TGI (T-47D breast): > 100 µM
TGI (RPMI-8226 leukemia): 62.4 µM
TGI (SF-295 CNS): > 100 µM

C(=N\NC1=NCCN1)/c1cccc2cc3ccncc3nc12
TGI (DU-145 prostate): 19.9 µM
TGI (SK-MEL-28 melanoma): 22.8 µM
TGI (OVCAR-3 ovarian): 17.1 µM
TGI (HOP-92 NSCLC): 6.4 µM
TGI (SNB-19 CNS): 21.4 µM
TGI (SF-268 CNS): 14.2 µM
TGI (UO-31 renal): 14.2 µM
TGI (CAKI-1 renal): 14.1 µM
TGI (T-47D breast): 12.7 µM
TGI (RPMI-8226 leukemia): 4.44 µM
TGI (SF-295 CNS): 14.5 µM

COCC12CCC(OC)C34C5CC6(O)C(OC)C=C(C5C6OC(=O)c5ccccc5)C(C(OC)C13)C4N(C)C2 (stereo unspecified)
TGI (DU-145 prostate): > 100 µM
TGI (SK-MEL-28 melanoma): > 100 µM
TGI (OVCAR-3 ovarian): > 100 µM
TGI (HOP-92 NSCLC): > 100 µM
TGI (SNB-19 CNS): > 100 µM
TGI (SF-268 CNS): > 100 µM
TGI (UO-31 renal): > 100 µM
TGI (CAKI-1 renal): > 100 µM
TGI (T-47D breast): > 100 µM
TGI (RPMI-8226 leukemia): > 100 µM
TGI (SF-295 CNS): > 100 µM

CCOC(=O)c1cn(CC)c2ccc3ccsc3c2c1=O
TGI (DU-145 prostate): > 100 µM
TGI (SK-MEL-28 melanoma): > 100 µM
TGI (OVCAR-3 ovarian): > 100 µM
TGI (HOP-92 NSCLC): > 100 µM
TGI (SNB-19 CNS): > 100 µM
TGI (SF-268 CNS): > 100 µM
TGI (UO-31 renal): > 100 µM
TGI (CAKI-1 renal): > 100 µM
TGI (T-47D breast): > 100 µM
TGI (RPMI-8226 leukemia): > 100 µM
TGI (SF-295 CNS): > 100 µM

O=C(Oc1c(Br)cc(Br)cc1C(=O)Oc1ccccc1)C(=O)Oc1c(Br)cc(Br)cc1C(=O)Oc1ccccc1
TGI (DU-145 prostate): > 100 µM
TGI (SK-MEL-28 melanoma): > 100 µM
TGI (OVCAR-3 ovarian): 66.2 µM
TGI (HOP-92 NSCLC): 38.4 µM
TGI (SNB-19 CNS): 64.8 µM
TGI (SF-268 CNS): > 100 µM
TGI (UO-31 renal): 49.7 µM
TGI (CAKI-1 renal): 57.9 µM
TGI (T-47D breast): 75 µM
TGI (RPMI-8226 leukemia): 52.9 µM
TGI (SF-295 CNS): > 100 µM

CCCn1c(=O)c2nn3c(=O)n(CCC)c(=O)c3nn2c1=O
TGI (DU-145 prostate): > 100 µM
TGI (SK-MEL-28 melanoma): > 100 µM
TGI (OVCAR-3 ovarian): > 100 µM
TGI (HOP-92 NSCLC): > 100 µM
TGI (SNB-19 CNS): > 100 µM
TGI (SF-268 CNS): > 100 µM
TGI (UO-31 renal): > 100 µM
TGI (CAKI-1 renal): > 100 µM
TGI (T-47D breast): > 100 µM
TGI (RPMI-8226 leukemia): > 100 µM
TGI (SF-295 CNS): > 100 µM

C/C(=N\O)C1CC2C=C(C#N)C1N(Cc1ccccc1)C2 (stereo unspecified)
TGI (DU-145 prostate): > 100 µM
TGI (SK-MEL-28 melanoma): > 100 µM
TGI (OVCAR-3 ovarian): > 100 µM
TGI (HOP-92 NSCLC): > 100 µM
TGI (SNB-19 CNS): > 100 µM
TGI (SF-268 CNS): > 100 µM
TGI (UO-31 renal): > 100 µM
TGI (CAKI-1 renal): > 100 µM
TGI (T-47D breast): > 100 µM
TGI (RPMI-8226 leukemia): > 100 µM
TGI (SF-295 CNS): > 100 µM

[N-]=[N+]=CC(=O)OCC1NC(=O)C(COC(=O)C=[N+]=[N-])NC1=O (stereo unspecified)
TGI (DU-145 prostate): > 100 µM
TGI (SK-MEL-28 melanoma): > 100 µM
TGI (OVCAR-3 ovarian): > 100 µM
TGI (HOP-92 NSCLC): > 100 µM
TGI (SNB-19 CNS): > 100 µM
TGI (SF-268 CNS): > 100 µM
TGI (UO-31 renal): > 100 µM
TGI (CAKI-1 renal): > 100 µM
TGI (T-47D breast): > 100 µM
TGI (RPMI-8226 leukemia): > 100 µM
TGI (SF-295 CNS): > 100 µM

CCP(=O)(CC)C(Cl)(Cl)C(O)C(Cl)(Cl)Cl (stereo unspecified)
TGI (DU-145 prostate): > 100 µM
TGI (SK-MEL-28 melanoma): > 100 µM
TGI (OVCAR-3 ovarian): > 100 µM
TGI (HOP-92 NSCLC): > 100 µM
TGI (SNB-19 CNS): > 100 µM
TGI (UO-31 renal): > 100 µM
TGI (CAKI-1 renal): > 100 µM
TGI (T-47D breast): > 100 µM
TGI (RPMI-8226 leukemia): > 100 µM
TGI (SF-295 CNS): > 100 µM

CSC1=C(C#N)C(=O)N(c2ccc(C)cc2)C(=O)C1C#N (stereo unspecified)
TGI (DU-145 prostate): > 100 µM
TGI (SK-MEL-28 melanoma): > 100 µM
TGI (OVCAR-3 ovarian): > 100 µM
TGI (HOP-92 NSCLC): 82 µM
TGI (SNB-19 CNS): > 100 µM
TGI (SF-268 CNS): > 100 µM
TGI (UO-31 renal): > 100 µM
TGI (CAKI-1 renal): > 100 µM
TGI (T-47D breast): > 100 µM
TGI (RPMI-8226 leukemia): > 100 µM
TGI (SF-295 CNS): > 100 µM

C/C1=C/C[C@@H](/C(C)=C/c2csc(C)n2)OC(=O)C[C@H](O)C(C)(C)C(=O)[C@H](C)[C@@H](O)[C@@H](C)CCC1
TGI (DU-145 prostate): < 0.0001 µM
TGI (OVCAR-3 ovarian): 0.173 µM
TGI (HOP-92 NSCLC): 0.302 µM
TGI (SNB-19 CNS): 0.189 µM
TGI (UO-31 renal): 0.181 µM
TGI (CAKI-1 renal): 0.305 µM
TGI (T-47D breast): 0.361 µM
TGI (RPMI-8226 leukemia): 0.217 µM
TGI (SF-295 CNS): < 0.0001 µM
